Test results from patent publication US20210189342A1, “COMPOSITIONS AND METHODS FOR MODULATING MONOCYTE AND MACROPHAGE INFLAMMATORY PHENOTYPES AND IMMUNOTHERAPY USES THEREOF” (Verseau Therapeutics, Inc., priority 2018, published 2021).

tested on: FERMT3; test: siRNA dose response, FERMT3 mRNA knockdown, bDNA Assay; type: cell-based, human; conditions: THP-1, 24 hr
Description: (§1) Dose response curves for siRNAs were generated in vitro using a variety of cell lines according to Table 4.
(§2) Briefly, cells were seeded in 96-well plates and reverse transfected with siRNA, Lipofectamine® 2000 (0.5 uL/well; ThermoFisher), and, in some cases, a reporter plasmid (50 ng/well). The reporter plasmid (psiCHECK™-2, Promega) encoded both firefly luciferase and the gene of interest fused to renilla luciferase; silencing of the gene of interest results in proportional silencing of renilla luciferase but leaves firefly luciferase unaffected as an internal control.
(§3) After 24 hr incubation at 37° C., mRNA knockdown was measured using an endpoint assay. For targets without a reporter plasmid, a branched DNA (bDNA) assay was performed according to the manufacturer's instructions (QuantiGene® Singleplex Gene Expression Assay, ThermoFisher) to measure both the target gene and GAPDH (housekeeping gene) mRNA. Data are plotted as siRNA concentration (nM) vs. remaining mRNA (ratio of target gene to GAPDH, normalized to mock siRNA-transfected cells). For targets with a reporter plasmid, a Dual-Glo® Luciferase Assay was performed according to the manufacturer's instructions (Promega) to measure firefly and renilla luciferase expression. Data are plotted as siRNA concentration (nM) vs. remaining mRNA (ratio of renilla to firefly luminescence, normalized to mock siRNA-transfected cells).
(§4) For all dose response curves, a 4-parameter logistic model was applied to determine the IC50 of each siRNA sequence (Table 5 and FIG. 2). Data shown in Table 5 and FIG. 2 represent the mean of quadruplicates, +/−standard deviation.

Row | Substance | IC50
1 | XD-09701: siRNA targeting FERMT3 (sense 5'-ggcuGcGcuucAAguAcuAdTsdT-3'; antisense 5'-uAGuACUUGAAGCGcAGCCdTsdT-3'; RNA with 2'-O-methyl and phosphorothioate modifications, case key not given here, as printed in the source, key not given here) | 0.921 nM
2 | XD-09705: siRNA targeting FERMT3 (sense 5'-guucccGAuGuuAacGucudTsdT-3'; antisense 5'-AGACGUuAAcAUCGGGAACdTsdT-3'; RNA with 2'-O-methyl and phosphorothioate modifications, case key not given here, as printed in the source, key not given here) | 6.75 nM
3 | XD-09708: siRNA targeting FERMT3 (sense 5'-gcuGccGAAuuGuacAcGAdTsdT-3'; antisense 5'-UCGUGuAcAAUUCGGcAGCdTsdT-3'; RNA with 2'-O-methyl and phosphorothioate modifications, case key not given here, as printed in the source, key not given here) | 0.012 nM
4 | XD-09709: siRNA targeting FERMT3 (sense 5'-guAGcuAcAGGAugAuGAAdTsdT-3'; antisense 5'-UUcAUcAUCCUGuAGCuACdTsdT-3'; RNA with 2'-O-methyl and phosphorothioate modifications, case key not given here, as printed in the source, key not given here) | 0.048 nM

tested on: DOCK2; test: siRNA dose response, DOCK2 mRNA knockdown, bDNA Assay; type: cell-based, human; conditions: THP-1, 24 hr
Description: as §1, §2, §3, §4

Row | Substance | IC50
5 | XD-09696: siRNA targeting DOCK2 (sense 5'-cucAuuGcAGAccgGAAAudTsdT-3'; antisense 5'-AUUUCCGGUCUGcAAUGAGdTsdT-3'; RNA with 2'-O-methyl and phosphorothioate modifications, case key not given here, as printed in the source, key not given here) | 1.77 nM
6 | XD-09697: siRNA targeting DOCK2 (sense 5'-accGGAAAuuucAgcAuuudTsdT-3'; antisense 5'-AAAUGCUGAAAUUUCCGGUdTsdT-3'; RNA with 2'-O-methyl and phosphorothioate modifications, case key not given here, as printed in the source, key not given here) | 0.556 nM
7 | XD-09698: siRNA targeting DOCK2 (sense 5'-ggucGAGGAcAuuauuuucdTsdT-3'; antisense 5'-GAAAAuAAUGUCCUCGACCdTsdT-3'; as printed in the source, key not given here) | 1.36 nM
